Experimental data taken from PubChem BioAssay AID2060496 (Molecular Pharmacology Branch, DTP, NCI, 2025).

Test system: 276233-004-R-J1-PDC complex spheroid viability
Assay: Anticancer human tumor 276233-004-R-J1-PDC patient-derived colon adenocarcinoma cell line growth inhibition [GQUAD]
Conditions: for IC50: curve of first compound; for viability, T/C: stronger effect = lower value
Outline: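 Tumor cells were grown as complex spheroids with HUVEC endothelial cells and mesenchymal stem cells as stroma. G-quadruplex stabilizers were combined with targeted agents over half-log dilutions from near the clinical Cmax, or from 10 microM.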

[1] = second compound 0.0316 µM, first compound 0.0316 µM
[2] = second compound 0.0316 µM, first compound 0.1 µM
[3] = second compound 0.0316 µM, first compound 0.316 µM
[4] = second compound 0.0316 µM, first compound 1 µM
[5] = second compound 0.0316 µM, first compound 3.16 µM
[6] = second compound 0.0316 µM, first compound 10 µM
[7] = second compound 0.1 µM, first compound 0.0316 µM
[8] = second compound 0.1 µM, first compound 0.1 µM
[9] = second compound 0.1 µM, first compound 0.316 µM
[10] = second compound 0.1 µM, first compound 1 µM
[11] = second compound 0.1 µM, first compound 3.16 µM
[12] = second compound 0.1 µM, first compound 10 µM
[13] = second compound 0.316 µM, first compound 0.0316 µM
[14] = second compound 0.316 µM, first compound 0.1 µM
[15] = second compound 0.316 µM, first compound 0.316 µM
[16] = second compound 0.316 µM, first compound 1 µM
[17] = second compound 0.316 µM, first compound 3.16 µM
[18] = second compound 0.316 µM, first compound 10 µM
[19] = second compound 1 µM, first compound 0.0316 µM
[20] = second compound 1 µM, first compound 0.1 µM
[21] = second compound 1 µM, first compound 0.316 µM
[22] = second compound 1 µM, first compound 1 µM
[23] = second compound 1 µM, first compound 3.16 µM
[24] = second compound 1 µM, first compound 10 µM
[25] = second compound 3.16 µM, first compound 0.0316 µM
[26] = second compound 3.16 µM, first compound 0.1 µM
[27] = second compound 3.16 µM, first compound 0.316 µM
[28] = second compound 3.16 µM, first compound 1 µM
[29] = second compound 3.16 µM, first compound 3.16 µM
[30] = second compound 3.16 µM, first compound 10 µM
[31] = second compound 10 µM, first compound 0.0316 µM
[32] = second compound 10 µM, first compound 0.1 µM
[33] = second compound 10 µM, first compound 0.316 µM
[34] = second compound 10 µM, first compound 1 µM
[35] = second compound 10 µM, first compound 3.16 µM
[36] = second compound 10 µM, first compound 10 µM
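Further: spheroids exposed to drugs for seven days.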
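Wherever viability, T/C is given: 100% = DMSO vehicle control viability.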

C=CCn1c(=O)c2cnc(Nc3ccc(N4CCN(C)CC4)cc3)nc2n1-c1cccc(C(C)(C)O)n1 + Cc1[nH]c2ccc(F)cc2c1-c1nc2c3cccnc3c3ncccc3c2[nH]1
IC50 (second compound 0.0316 µM): > 10000 nM | IC50 (second compound 0.1 µM): > 10000 nM | IC50 (second compound 0.316 µM): > 10000 nM | IC50 (second compound 1 µM): 104 nM | IC50 (second compound 3.16 µM): < 31.6 nM | IC50 (second compound 10 µM): < 31.6 nM | viability, T/C [1]: 98.8% | viability, T/C [2]: 86.5% | viability, T/C [3]: 71.4% | viability, T/C [4]: 67.8% | viability, T/C [5]: 66.8% | viability, T/C [6]: 66.6% | viability, T/C [7]: 79.6% | viability, T/C [8]: 79.5% | viability, T/C [9]: 64.5% | viability, T/C [10]: 48.3% | viability, T/C [11]: 61% | viability, T/C [12]: 52.7% | viability, T/C [13]: 64% | viability, T/C [14]: 58.4% | viability, T/C [15]: 60.2% | viability, T/C [16]: 41.1% | viability, T/C [17]: 56.9% | viability, T/C [18]: 61.4% | viability, T/C [19]: 53.8% | viability, T/C [20]: 53.9% | viability, T/C [21]: 48% | viability, T/C [22]: 36.4% | viability, T/C [23]: 51.7% | viability, T/C [24]: 50.4% | viability, T/C [25]: 16.3% | viability, T/C [26]: 14% | viability, T/C [27]: 28.1% | viability, T/C [28]: 18.1% | viability, T/C [29]: 20.2% | viability, T/C [30]: 23.9% | viability, T/C [31]: 36.8% | viability, T/C [32]: 35.8% | viability, T/C [33]: 32.8% | viability, T/C [34]: 26.7% | viability, T/C [35]: 30.3% | viability, T/C [36]: 35.4%

C#Cc1c(F)ccc2cc(O)cc(-c3ncc4c(N5CC6CCC(C5)N6)nc(OCC56CCCN5CC(F)C6)nc4c3F)c12 (stereo unspecified) + CN(C)c1ccc(Nc2c3ccc(NC(=O)CCN4CCCC4)cc3nc3cc(NC(=O)CCN4CCCC4)ccc23)cc1
IC50 (second compound 0.0316 µM): 3310 nM | IC50 (second compound 0.1 µM): 3140 nM | IC50 (second compound 0.316 µM): 1300 nM | IC50 (second compound 1 µM): 368 nM | IC50 (second compound 3.16 µM): < 31.6 nM | IC50 (second compound 10 µM): < 31.6 nM | viability, T/C [1]: 90.1% | viability, T/C [2]: 79% | viability, T/C [3]: 101% | viability, T/C [4]: 75.6% | viability, T/C [5]: 52% | viability, T/C [6]: 36.9% | viability, T/C [7]: 78.7% | viability, T/C [8]: 74.2% | viability, T/C [9]: 56.4% | viability, T/C [10]: 56.8% | viability, T/C [11]: 54.8% | viability, T/C [12]: 42.2% | viability, T/C [13]: 54.7% | viability, T/C [14]: 47.2% | viability, T/C [15]: 57.1% | viability, T/C [16]: 54.2% | viability, T/C [17]: 39% | viability, T/C [18]: 30.1% | viability, T/C [19]: 65% | viability, T/C [20]: 54.8% | viability, T/C [21]: 54.9% | viability, T/C [22]: 40.4% | viability, T/C [23]: 49.1% | viability, T/C [24]: 42% | viability, T/C [25]: 51.2% | viability, T/C [26]: 40% | viability, T/C [27]: 36.5% | viability, T/C [28]: 39.2% | viability, T/C [29]: 39.1% | viability, T/C [30]: 35.1% | viability, T/C [31]: 43.6% | viability, T/C [32]: 43.7% | viability, T/C [33]: 40.2% | viability, T/C [34]: 40.7% | viability, T/C [35]: 36.6% | viability, T/C [36]: 27.4%

CCc1c2c(nc3ccc(O)cc13)-c1cc3c(c(=O)n1C2)COC(=O)[C@]3(O)CC + Cc1[nH]c2ccc(F)cc2c1-c1nc2c3cccnc3c3ncccc3c2[nH]1
IC50 (second compound 0.0316 µM): > 316 nM | IC50 (second compound 0.1 µM): > 316 nM | IC50 (second compound 0.316 µM): > 316 nM | IC50 (second compound 1 µM): > 316 nM | IC50 (second compound 3.16 µM): > 316 nM | IC50 (second compound 10 µM): < 0.999 nM | viability, T/C (second compound 0.0316 µM, first compound 0.000999 µM): 104% | viability, T/C (second compound 0.0316 µM, first compound 0.00316 µM): 72.7% | viability, T/C (second compound 0.0316 µM, first compound 0.00999 µM): 85.2% | viability, T/C [1]: 103% | viability, T/C (second compound 0.0316 µM, first compound 0.0999 µM): 106% | viability, T/C [3]: 94.2% | viability, T/C (second compound 0.1 µM, first compound 0.000999 µM): 76.3% | viability, T/C (second compound 0.1 µM, first compound 0.00316 µM): 89.8% | viability, T/C (second compound 0.1 µM, first compound 0.00999 µM): 79.5% | viability, T/C [7]: 97.5% | viability, T/C (second compound 0.1 µM, first compound 0.0999 µM): 111% | viability, T/C [9]: 90.4% | viability, T/C (second compound 0.316 µM, first compound 0.000999 µM): 78.8% | viability, T/C (second compound 0.316 µM, first compound 0.00316 µM): 82.6% | viability, T/C (second compound 0.316 µM, first compound 0.00999 µM): 78.1% | viability, T/C [13]: 94.1% | viability, T/C (second compound 0.316 µM, first compound 0.0999 µM): 97.2% | viability, T/C [15]: 88.1% | viability, T/C (second compound 1 µM, first compound 0.000999 µM): 62.8% | viability, T/C (second compound 1 µM, first compound 0.00316 µM): 82.7% | viability, T/C (second compound 1 µM, first compound 0.00999 µM): 80.5% | viability, T/C [19]: 81.6% | viability, T/C (second compound 1 µM, first compound 0.0999 µM): 90.1% | viability, T/C [21]: 73.5% | viability, T/C (second compound 3.16 µM, first compound 0.000999 µM): 58.7% | viability, T/C (second compound 3.16 µM, first compound 0.00316 µM): 57.3% | viability, T/C (second compound 3.16 µM, first compound 0.00999 µM): 54% | viability, T/C [25]: 62.3% | viability, T/C (second compound 3.16 µM, first compound 0.0999 µM): 67.3% | viability, T/C [27]: 67.3% | viability, T/C (second compound 10 µM, first compound 0.000999 µM): 39.8% | viability, T/C (second compound 10 µM, first compound 0.00316 µM): 41.1% | viability, T/C (second compound 10 µM, first compound 0.00999 µM): 56.8% | viability, T/C [31]: 62.2% | viability, T/C (second compound 10 µM, first compound 0.0999 µM): 55.4% | viability, T/C [33]: 54.8%
